Patent US8093273B2, “Flavanoids and isoflavanoids for the prevention and treatment of cardiovascular diseases” (Resverlogix Corp., priority 2004, dated 2012)

Assays:
[1] = system: Caco-2 cells; experiment: Caco-2 permeability; type: in vitro ADME, human; details: in vitro Caco-2 intestinal transport model
From the text: (§1) The Caco-2 cell drug transport model is widely used for screening compounds in drug discovery to assess intestinal transport and predict absorption rates.

[2] = Caco-2 permeability; type: in vitro ADME, human; details: human; in vitro Caco-2 intestinal transport model; read-out: % Transported Paap
From the text: as §1

[3] = system: human ApoA-I promoter; experiment: ApoA-I promoter induction in Caco-2 intestinal cells (pAI.474-Luc luciferase reporter); type: cell-based; details: Caco-2 cells, 15 μM, 48 hours incubation, luciferase activity vs control samples
Procedure, shortened: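 Caco-2 cells stably carrying the human ApoA-I promoter–firefly luciferase construct (pAI.474-Luc) were starved 24 h in 0.5% FBS medium, then exposed to compound at 0 to 100 μM final for 48 h at 37° C. Luciferase activity in lysates was normalized to Bradford protein and compared with solvent-only and untreated controls.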

[4] = system: human ApoA-I promoter; details: Caco-2 cells, reported by Wong; cited from earlier work
[5] = system: human ApoA-I promoter; details: Caco-2 cells, reported by Wong (US 20040033480); cited from earlier work
[6] = following oral administration; Gugler et al. 1975; cited from earlier work

SMILES	% Transported Paap [1] [×10⁻⁶ cm/s]	Papp [2] [×10⁻⁶ cm/s]	ApoA-I Promoter Induction [3]	exposure time of maximal stimulation of ApoA-I promoter activity [4] [h]	increase of ApoA-I promoter activity over untreated control [5] [times]	intestinal absorption [6]
Oc1ccc(/C=C/c2cc(O)cc(O)c2)cc1 [Resveratrol, resveratrol, reference compound]	3.34	3.34	increased	16	2.5	–
O=c1c(O)c(-c2ccc(O)c(O)c2)oc2cc(O)cc(O)c12 [quercetin]	–	–	–	–	–	less than 1%
